# Assay results published in patent publication US12257325B2, “Chelating platform for delivery of radionuclides” (priority 2016, dated 2025).
# Assays:
# [1] = cited from earlier work
# [2] = Incremental spectrophotometric titrations: protonation constants of 3,4,3-LI(CAM); assay type: physicochemical; conditions: I=0.1 M (KCl), T=25° C.; lower values = higher acidity
# Experimental: (§1) Solution Thermodynamics. All titrant solutions were degassed by boiling for 1 h while being purged under Ar. Carbonate-free 0.1 M KOH was prepared from concentrate (J.T Baker Dilut-It) and was standardized by titrating against 0.1 M potassium hydrogen phthalate (99.95%, Sigma Aldrich). Solutions of 0.1 M HCl were similarly prepared and were standardized by titrating against TRIS (99.9%, J.T. Baker). The glass electrode (Metrohm-Micro Combi-response to [H+]) used for the pH measurements was calibrated at 25.0° C. and at an ionic strength of 0.1 M (KCl) before each potentiometric or spectrophotometric titration. The calibration data were analyzed using the program GLEE (Gans & O'Sullivan, Talanta, 2000, 51 (1): 33-37) to refine for the E° and slope. […]
# (§2) Incremental Spectrophotometric Titrations. […] For the 3,4,3-LI(CAM) protonation (and Eu(III)-3,4,3-LI(CAM) complexes), titrations were performed with an initial concentration of 50 μM of 3,4,3-LI(CAM) (and 50 μM of Eu(III)) resulting in absorbance values included between 0 and 1.0 throughout the titration. […]
# (§3) Data Treatment. […] All metal and chelator concentrations were held at estimated values determined from the volume of standardized stock solutions. All species formed with 3,4,3-LI(CAM) were considered to have significant absorbance to be observed in the UV-vis spectra and were therefore included in the refinement process. […]
# [3] = Incremental spectrophotometric titrations: stability constants of Eu(III) complexes; assay type: physicochemical; conditions: 1 equivalent of Eu(III); calculated speciation diagram
# Experimental: as §1, §2, §3
# [4] = Incremental spectrophotometric titrations: stability constants of Th(IV) complexes (DTPA competition); assay type: physicochemical; conditions: 1 equivalent of Th(IV); calculated speciation diagram
# Experimental: as §1, §2, §3
# [5] = Incremental spectrophotometric titrations: stability constants of Zr(IV) complexes (DTPA competition); assay type: physicochemical; conditions: 1 equivalent of Zr(IV); calculated speciation diagram
# Experimental: as §1, §2, §3
# [6] = target: T1, recombinant wild-type Scn (Homo sapiens, UniProt P80188); assay: Fluorescence Quenching Binding Assay
# T1 construct: made in house
# Experimental: Metal, Chelator, and Protein Working Solutions. The trivalent lanthanide Ln(III) working stock solutions were prepared in standardized 0.1 M HCl. A Zr(IV) stock solution was prepared by dissolving ZrCl4 in 3.0 M H2SO4, to prevent hydrolysis. The metal salt ZrCl4 was handled and stored in a glovebox kept under inert atmosphere. The Zr(IV) stock solution was standardized against EDTA, with xylene orange as the indicator (Welcher, F. J. The analytical uses of ethylenediamine tetraacetic acid; 1958). A Th(IV) stock solution was prepared in 0.1 M H2SO4. […]
# Fluorescence Quenching Binding Assay. […] Fluorescence quenching of Scn was measured after each titrant addition on a HORIBA Jobin Yvon IBH FluoroLog-3 spectrofluorimeter, with 3 nm slit band-pass, using the characteristic excitation and emission wavelengths λexc=280 and λem=320-360 nm. The intrinsic fluorescence in proteins is generally attributed to tryptophan residues; two residues W31 and W79 are found in the proximity of the Scn binding site. Fluorescence values were corrected for dilution upon addition of titrant. Fluorescence data were analyzed by nonlinear regression analysis of fluorescence response versus chelator concentration using a one-site binding model as described elsewhere. […]
# [7] = In Vivo Biodistribution Assay with ^238Pu tracer; set-up: species or system CD-1 mice; conditions: mice, intravenous
# Experimental: In Vivo Biodistribution Assay. All procedures and protocols used in the presented in vivo studies were reviewed and approved by the Institutional Animal Care and Use Committee at Lawrence Berkeley National Laboratory and performed in AAALAC accredited facilities. The animals used were adult female CD-1 mice (180±7 days old, 40.8±5.8 g). Solutions of ^238Pu complexed by 3,4,3-LI(CAM) and Scn:3,4,3-LI(CAM) were prepared in situ at molar ratios protein:ligand:^238Pu of 0:100:1 and 100:100:1, respectively by mixing and incubating the appropriate quantities of ^238Pu(NO3)4, ligand, and protein in phosphate-buffered saline (PBS) to reach a ^238Pu concentration of 12 ng L-1. Protein solutions were washed thrice with PBS using 10 kDa molecular weight cut-off membrane-based centrifugal filters, and all solutions were filter-sterilized (0.22 μm) prior to injection. Under isoflurane anesthesia, groups of three normally fed mice were injected intravenously with 0.2 mL of a complex solution (370 Bq per mouse). After injection of the ^238Pu tracer, mice were weighed, identified, and housed in groups of three in plastic stock cages lined with a 0.5 cm layer of highly absorbent low-ash pelleted cellulose bedding (Alpha-dri) for separation of urine and feces. Mice were given water and food ad libitum and euthanized at 4, 24, or 48 h after tracer injection. All experiments using ^238Pu tracers were managed as metabolic balance studies, in which tissues and excreta were analyzed for ^238Pu by liquid scintillation counting on a Perkin Elmer Packard Tri-Carb model B4430. The methods of sample collection, preparation, radioactivity measurements, and data reduction have been published previously (Sturzbecher-Hoehne, et al., Dalton Transactions, 2011, 40 (33): 8340-8346: Kullgren, et al., Toxicology mechanisms and methods, 2013, 23 (1), 18-26; Durbin, et al., Health physics 2000, 78 (5): 511-521). Those methods provide quantitative measurements of radioactivity in biological samples; material recoveries averaged 99% of the amount injected in these experiments.
# Biodistribution Evaluation. To evaluate the in vivo retention and excretion patterns of M(IV)-3,4,3-LI(CAM) complexes and their Scn adducts, ^238Pu(IV) was used as a radiolabel. ^238Pu(IV) likely behaves similarly to Th(IV) and Zr(IV) (the ionic radius of Pu^4+ is included between those of Th^4+ and Zr^4+) (Sturzbecher-Hoehne, et al., Inorganic Chemistry, 2015, 54 (7): 3462-3468) but allows for more accurate metabolic balance experiments due to its relatively long radioactive half-life (87.8 yr) and low specific activity (0.63 TBq/g), compared to the therapeutic ^227Th (18.68 d; 1139 TBq/g) and imaging ^89Zr (78.42 h; 16,630 TBq/g) isotopes. […] In this in vivo stability experiment, ^238Pu-ligand complex solutions were formed in situ (Ligand:Pu and Scn:Chelator:Pu ratios of 100:1 and 100:100:1, respectively) and administered intravenously. Mice were euthanized 4, 24, or 48 h after the metal injection, and tissues and excreta were radioanalyzed for ^238Pu content (FIG. 14).
molecule,measurement,setting,value
"O=C(NCCCN(CCCCN(CCCNC(=O)c1cccc(=O)n1O)C(=O)c1cccc(=O)n1O)C(=O)c1cccc(=O)n1O)c1cccc(=O)n1O [3,4,3-LI(1,2-HOPO)]",pH at which 4+ metal complexes are formed,"[1]; 4+ metals, very acidic conditions",< 0
same,pH at which Eu(III) species appear,"[1]; Eu(III), same conditions",1
"O=C(NCCCN(CCCCN(CCCNC(=O)c1cccc(O)c1O)C(=O)c1cccc(O)c1O)C(=O)c1cccc(O)c1O)c1cccc(O)c1O [3,4,3-LI(CAM)]",overall acidity ΣpKa5-8,[2],45.4
same,pH at which complexation starts,[3],5
same,pH at which complexes start forming,[4],~3
same,pH at which complexes start forming,[5],~3
same,Kd,[6],1.2 ± 0.4 nM
"Scn:[Pu^IV(3,43-LI(CAM))]: siderocalin adduct of the ^238Pu(IV) complex of 3,4,3-LI(CAM), Scn:chelator:Pu 100:100:1 (conjugate, UniProt P80188 21-198, looked up, bound Pu(IV)-3,4,3-LI(CAM) complex) Neutrophil …: QDSTSDLIPAPPLSKVPLQQNFQDNQFQGKWYVVGLAGNAILREDKDPQKMYATIYELKEDKSYNVTSVLFRKKKCDYWIRTFVPGCQPGEFTLGNIKSYPGLTSYLVRVVSTNYNQHAMVFFKKVSQNREYFKITLYGRTKELTSELKENFIRFSKSLGLPENHIVFPVPIDQCIDG",in vivo stability,[7],high in vivo stability
same,injected ^238Pu excreted by 48 hours,"[7]; 370 Bq per mouse, 48 h",30%
same,^238Pu found in the kidneys,[7]; 4 h after administration,up to 52%
same,^238Pu in urine versus feces,"[7]; all time points (4, 24, 48 h)",more ^238Pu was found in the urine than in the feces
same,retention and excretion pattern (kidney vs. liver),[7]; early time points,favors elimination through the renal system
